# Test system: potato dihydroorotase
# Assay: Measurement of the dihydroorotase activity (dihydroorotate-dehydrogenase-coupled photometric assay at 340 nm, or colorimetric assay)
# Type: biochemical, Solanum tuberosum
# Conditions: activity measured in the assay systems described; recombinant enzyme expressed in E. coli
# Source text: The enzymatic detection developed to date for measuring the dihydroorotase activity by the method of Mazus and Buchowicz, (Acta Biochimica Polonica (1968), 15(4), 317-325) is based on detecting the orotate formed at 280 nm in a dihydroorotate-dehydrogenase-coupled reaction mixture. Prerequisite for doing so is a high activity of the auxiliary enzyme, viz. dihydroorotate dehydrogenase. […] In order to be able to carry out a mass screening, the specific dihydroorotate dehydrogenase activity must be at least ten times higher than is the case in the commercial preparation. […] The enzyme activity was determined in a photometric assay by measurement in a photometer (Uvikon 933, Kontron) at 340 nm. […] In each case […] of the resulting enzyme fraction was made up with buffer to […] and measured against a reference cell containing […] reaction buffer and 100 ml of a protein homogenate of untransformed E. coli culture. […] Identical quantities of total protein were employed for measuring the untransformed or transformed E. coli extracts. […] Alternatively, the dihydroorotase may also be measured in a less sensitive colorimetric assay by the method of Prescott and Jones (Anal. Biochem. (1969) 32, 408-419) without being coupled to dihydroorotate dehydrogenase. […]
row,SMILES,potato dihydroorotase activity
1,"O=C1NC(C(=O)O)=CC(C(=O)O)N1 (centres unmarked) [2-oxo-1,2,3,6-tetrahydropyrimidine-4,6-dicarboxylate]",can be reduced
2,O=C1NC(=S)C[C@@H](C(=O)O)N1 [6-L-thiodihydroorotate],can be reduced

# — US7727753B2, “Plant dihydroorotase” (BASF Aktiengesellschaft, priority 1999, dated 2010)
